Laboratory results taken from US10138226B2, “Benzimidazol-2-amines as MIDH1 inhibitors” (Bayer Pharma Aktiengesellschaft, priority 2014, dated 2018).
pIC50: −log10 of the molar value.

The molecules below were run against IDH1 R132H enzyme (Homo sapiens (Human), UniProt O75874, R132H) (assay: Mutant IDH1 R132H biochemical assay). Conditions: NADPH consumption, luminescent readout, 250 μM α-KG, 1 μM NADPH, 32° C., 30 minutes, test range 0.002-10 μM.
Description: mIDH1 catalyzes the NADPH-dependent reduction of alpha-ketoglutarate (α-KG) to (2R)-2-hydroxyglutarate (2-HG). NADPH consumption was measured by luminescent readout.
The biochemical reactions were performed at 32° C. in 384-well plates using a reaction volume of 41 μl and the following assay buffer conditions: 50 mM Tris pH 7.5, 100 mM NaCl, 20 mM MgCl2, 0.05% BSA, 0.01% Brij, 1 μM NADPH, and 250 μM α-KG. […] Test compounds were used in a concentration range between 0.002 and 10 μM. The final DMSO concentration was 2.4%.
The reaction was incubated for 30 minutes, then 40 μl of detection mix (0.75 μg/ml Luciferase, 0.02 U/ml Oxidoreductase, 4 μg/ml FMN, 2 μl/ml Decanal/Ethanol, 50 mM Tris pH 7.5, 0.5% Glycerin, 0.01% Tween-20, 0.05% BSA) was added. Luminescence was measured on a luminescent reader (10 seconds measuring time, 1 second integration period, 30% sensitivity). The decrease in luminescence is proportional to mIDH1 activity. IC50 values are determined by interpolation from plots of relative luminescence versus inhibitor concentration.

Chain of IDH1 R132H enzyme (O75874 whole entry R132H): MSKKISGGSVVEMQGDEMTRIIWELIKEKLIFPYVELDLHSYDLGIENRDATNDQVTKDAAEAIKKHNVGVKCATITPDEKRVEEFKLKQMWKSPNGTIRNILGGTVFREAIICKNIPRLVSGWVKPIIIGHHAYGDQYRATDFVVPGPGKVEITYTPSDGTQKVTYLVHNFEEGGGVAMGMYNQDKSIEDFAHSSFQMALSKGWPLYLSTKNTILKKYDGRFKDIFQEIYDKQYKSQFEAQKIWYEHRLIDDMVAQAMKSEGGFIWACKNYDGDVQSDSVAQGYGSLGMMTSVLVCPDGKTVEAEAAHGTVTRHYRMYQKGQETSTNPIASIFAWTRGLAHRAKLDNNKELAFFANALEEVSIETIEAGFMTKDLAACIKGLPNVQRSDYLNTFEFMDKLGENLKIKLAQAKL

SMILES | pIC50
C[C@@H]1C[C@H](n2c(Nc3ccc(OC(F)(F)F)cc3)nc3ccc(C(=O)NC4CCCC4)cc32)CC(C)(C)C1 (racemic) [Example 2-5, (±) N-cyclopentyl-2-{[4-(trifluoromethoxy)phenyl]amino}-1-[(cis)-3,3,5-trimethylcyclohexyl]-1H-benzimidazole-6-carboxamide] | ≤ 5.00
COC(=O)CNC(=O)c1ccc2nc(Nc3ccc(OC(F)(F)F)cc3)n([C@H]3C[C@@H](C)CC(C)(C)C3)c2c1 (racemic) [Example 2-10, (±) methyl N-[(2-{[4-(trifluoromethoxy)phenyl]amino}-1-[(cis)-3,3,5-trimethylcyclohexyl]-1H-benzimidazol-6-yl)carbonyl]glycinate] | 5.18
C[C@@H]1C[C@H](n2c(Nc3ccc(OC(F)(F)F)cc3)nc3ccc(C(=O)N(C)CC(=O)O)cc32)CC(C)(C)C1 (racemic) [Example 2-11, (±) N-methyl-N-[(2-{[4-(trifluoromethoxy)phenyl]amino}-1-[(cis)-3,3,5-trimethylcyclohexyl]-1H-benzimidazol-6-yl)carbonyl]glycine] | 5.12
COC(=O)CCNC(=O)c1ccc2nc(Nc3ccc(OC(F)(F)F)cc3)n([C@H]3C[C@@H](C)CC(C)(C)C3)c2c1 (racemic) [Example 2-14, (±) methyl N-[(2-{[4-(trifluoromethoxy)phenyl]amino}-1-[(cis)-3,3,5-trimethylcyclohexyl]-1H-benzimidazol-6-yl)carbonyl]-β-alaninate] | ≤ 5.00
C[C@@H]1C[C@H](n2c(Nc3ccc(OC(F)(F)F)cc3)nc3ccc(C(=O)NCc4ccc(F)cc4)cc32)CC(C)(C)C1 (racemic) [Example 2-21, (±) N-(4-fluorobenzyl)-2-{[4-(trifluoromethoxy)phenyl]amino}-1-[(cis)-3,3,5-trimethylcyclohexyl]-1H-benzimidazole-6-carboxamide] | ≤ 5.00
C[C@@H]1C[C@H](n2c(Nc3ccc(OC(F)(F)F)cc3)nc3ccc(C(=O)Nc4ccc(F)cc4)cc32)CC(C)(C)C1 (racemic) [Example 2-22, (±) N-(4-fluorophenyl)-2-{[4-(trifluoromethoxy)phenyl]amino}-1-[(cis)-3,3,5-trimethylcyclohexyl]-1H-benzimidazole-6-carboxamide] | ≤ 5.00
C[C@@H]1C[C@H](n2c(Nc3ccc(OC(F)(F)F)cc3)nc3ccc(C(=O)NC4CC4)cc32)CC(C)(C)C1 (racemic) [Example 2-23, (±) N-cyclopropyl-2-{[4-(trifluoromethoxy)phenyl]amino}-1-[(cis)-3,3,5-trimethylcyclohexyl]-1H-benzimidazole-6-carboxamide] | ≤ 5.00
CCOC(=O)CCN(C)C(=O)c1ccc2nc(Nc3ccc(OC(F)(F)F)cc3)n([C@H]3C[C@@H](C)CC(C)(C)C3)c2c1 (racemic) [Example 2-24, (±) ethyl N-methyl-N-[(2-{[4-(trifluoromethoxy)phenyl]amino}-1-[(cis)-3,3,5-trimethylcyclohexyl]-1H-benzimidazol-6-yl)carbonyl]-β-alaninate] | ≤ 5.00
C[C@H]1C[C@H](n2c(Nc3ccc(OC(F)(F)F)cc3)nc3ccc(C(=O)N(C)C)cc32)CC(C)(C)C1 (racemic) [Example 2-25, (±) N,N-dimethyl-2-{[4-(trifluoromethoxy)phenyl]amino}-1-[(trans)-3,3,5-trimethylcyclohexyl]-1H-benzimidazole-6-carboxamide] | 6.33
C[C@@H]1C[C@H](n2c(Nc3ccc(OC(F)(F)F)cc3)nc3ccc(C(=O)NC4CC4)cc32)CC(C)(C)C1 (single isomer, unassigned; enantiomer a) [Example 2-23-1, N-cyclopropyl-2-{[4-(trifluoromethoxy)phenyl]amino}-1-[(cis)-3,3,5-trimethylcyclohexyl]-1H-benzimidazole-6-carboxamide, enantiomer A] | ≤ 5.00

Next, values leading:

pIC50 | SMILES
6.37 | CNC(=O)c1ccc2nc(Nc3ccc(OC(F)(F)F)cc3)n([C@H]3C[C@@H](C)CC(C)(C)C3)c2c1 (racemic) [Example 2-8, (±) N-methyl-2-{[4-(trifluoromethoxy)phenyl]amino}-1-[(cis)-3,3,5-trimethylcyclohexyl]-1H-benzimidazole-6-carboxamide]
5.66 | C[C@@H]1C[C@H](n2c(Nc3ccc(OC(F)(F)F)cc3)nc3ccc(C(=O)NCCO)cc32)CC(C)(C)C1 (racemic) [Example 2-13, (±) N-(2-hydroxyethyl)-2-{[4-(trifluoromethoxy)phenyl]amino}-1-[(cis)-3,3,5-trimethylcyclohexyl]-1H-benzimidazole-6-carboxamide]
≤ 5.00 | C[C@@H]1C[C@H](n2c(Nc3ccc(OC(F)(F)F)cc3)nc3ccc(C(=O)NCCC(=O)O)cc32)CC(C)(C)C1 (racemic) [Example 2-15, (±) N-[(2-{[4-(trifluoromethoxy)phenyl]amino}-1-[(cis)-3,3,5-trimethylcyclohexyl]-1H-benzimidazol-6-yl)carbonyl]-β-alanine]
≤ 5.00 | C[C@@H]1C[C@H](n2c(Nc3ccc(OC(F)(F)F)cc3)nc3ccc(C(=O)NS(C)(=O)=O)cc32)CC(C)(C)C1 (racemic) [Example 2-19, (±) N-(methylsulfonyl)-2-{[4-(trifluoromethoxy)phenyl]amino}-1-[(cis)-3,3,5-trimethylcyclohexyl]-1H-benzimidazole-6-carboxamide]
6.04 | CNC(=O)c1ccc2nc(Nc3ccc(OC(F)(F)F)cc3)n([C@H]3C[C@@H](C)CC(C)(C)C3)c2c1 (single isomer, unassigned; enantiomer a) [Example 2-8-1, N-methyl-2-{[4-(trifluoromethoxy)phenyl]amino}-1-[(cis)-3,3,5-trimethylcyclohexyl]-1H-benzimidazole-6-carboxamide, enantiomer A]
5.92 | CNC(=O)c1ccc2nc(Nc3ccc(OC(F)(F)F)cc3)n([C@H]3C[C@@H](C)CC(C)(C)C3)c2c1 (single isomer, unassigned; enantiomer b) [Example 2-8-2, N-methyl-2-{[4-(trifluoromethoxy)phenyl]amino}-1-[(cis)-3,3,5-trimethylcyclohexyl]-1H-benzimidazole-6-carboxamide, enantiomer B]
≤ 5.00 | C[C@@H]1C[C@H](n2c(Nc3ccc(OC(F)(F)F)cc3)nc3ccc(C(=O)NC4CC4)cc32)CC(C)(C)C1 (single isomer, unassigned; enantiomer b) [Example 2-23-2, N-cyclopropyl-2-{[4-(trifluoromethoxy)phenyl]amino}-1-[(cis)-3,3,5-trimethylcyclohexyl]-1H-benzimidazole-6-carboxamide, enantiomer B]

What follows are molecules tested on LN229 R132H cells overexpressing mutated isocitrate dehydrogenase (mIDH) (assay: Mutant IDH1 cellular assay (2-HG levels in medium)). Conditions: 2-HG in medium of LN229 R132H cells, 24 hours incubation, fluorescence readout.
Format: cell-based
Description: Mutant IDH1 Cellular Assay
Levels of (2R)-2-hydroxyglutarate (2HG) were measured in medium of a cell line with overexpression of mutated isocitrate dehydrogenase (mIDH) protein. mIDH catalyzes the NADPH-dependent reduction of alpha-ketoglutarate to 2-HG. Cells (LN229 R132H, Mohrenz et al., Apoptosis (2013) 18:1416-1425) were grown in DMEM containing 10% FCS. They were harvested by trypsin and seeded into 96-well plates. Cells were incubated overnight at 37° C. in 5% CO2. The next day test compounds were added to each cell well. The final concentration of DMSO was 0.1% and DMSO controls were included. The plates were then placed in an incubator for 24 hours.
2-HG was measured according to Balss et al. (Acta Neuropathol (2012) 124: 883-891). Briefly, HClO4 was added to each well and the plates were centrifuged. Aliquots are removed and incubated with hydroxyglutarate dehydrogenase (HGDH), diaphorase, NAD+, and resazurin. The conversion of resazurin to resorufin was detected by fluorescence spectroscopy at Ex 540 nm Em 600 nm. The increase in fluorescence is proportional to 2-HG production. IC50 values are determined by interpolation from plots of relative fluorescence vs inhibitor concentration.

SMILES | pIC50
C[C@@H]1C[C@H](n2c(Nc3ccc(OC(F)(F)F)cc3)nc3ccc(C(=O)N4CCOCC4)cc32)CC(C)(C)C1 (single isomer, unassigned; enantiomer a) [Example 2-16-1, morpholin-4-yl(2-{[4-(trifluoromethoxy)phenyl]amino}-1-[(cis)-3,3,5-trimethylcyclohexyl]-1H-benzimidazol-6-yl)methanone, enantiomer A] | 6.30

Same assay, conditions: Homo sapiens, LN-229, 24 h, 2-HG in medium of LN229 R132H cells, 24 hours incubation, fluorescence readout

SMILES | pIC50
COC(=O)c1ccc2nc(Nc3ccc(OC(F)(F)F)cc3)n([C@H]3C[C@@H](C)CC(C)(C)C3)c2c1 (racemic) [Example 2-1, (±) methyl 2-{[4-(trifluoromethoxy)phenyl]amino}-1-[(cis)-3,3,5-trimethylcyclohexyl]-1H-benzimidazole-6-carboxylate] | 5.49
COC(=O)c1ccc2nc(Nc3ccc(OC(F)(F)F)cc3)n([C@H]3C[C@H](C)CC(C)(C)C3)c2c1 (racemic) [Example 2-2, (±) methyl 2-{[4-(trifluoromethoxy)phenyl]amino}-1-[(trans)-3,3,5-trimethylcyclohexyl]-1H-benzimidazole-6-carboxylate] | 5.00
COC(=O)c1ccc2nc(Nc3ccc(OC(F)(F)F)cc3)n([C@H]3C[C@@H](C)CC(C)(C)C3)c2c1 (single isomer, unassigned; enantiomer b) [Example 2-1-2, methyl 2-{[4-(trifluoromethoxy)phenyl]amino}-1-[(cis)-3,3,5-trimethylcyclohexyl]-1H-benzimidazole-6-carboxylate, enantiomer B] | 5.24
